Measured values from ChEMBL document CHEMBL1201862, “PubChem BioAssay data set” (2004).
Calls of active or inactive are those of the source.

Key:
[1] = molecular target: Cytochrome P450 3A4 (Homo sapiens, UniProt P08684); details: Potency;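 note: confirmatory qHTS run detecting inhibitors and substrates of CYP3A4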
[2] = antiviral protection against BTV-induced cell death – arbovirus, BSR cells, confirmation (AID 1250); assay type: functional;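 note: protection from viral cytopathic effect measured as cell viability by ATP luminescence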
[3] = molecular target: Major prion protein (Homo sapiens, UniProt P04156); assay type: functional, cell-based
[4] = cells
[5] = molecular target: T1, Type-1 angiotensin II receptor (Homo sapiens, UniProt P30556); assay: antagonism of angiotensin II type 1 receptor – cell-based, uHTS hits, selectivity assay for APJ receptor antagonist project, dose response (AID 463214); assay type: functional;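 note: antagonist potency against angiotensin II stimulated AT1 response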
T1 sequence (P30556 whole entry): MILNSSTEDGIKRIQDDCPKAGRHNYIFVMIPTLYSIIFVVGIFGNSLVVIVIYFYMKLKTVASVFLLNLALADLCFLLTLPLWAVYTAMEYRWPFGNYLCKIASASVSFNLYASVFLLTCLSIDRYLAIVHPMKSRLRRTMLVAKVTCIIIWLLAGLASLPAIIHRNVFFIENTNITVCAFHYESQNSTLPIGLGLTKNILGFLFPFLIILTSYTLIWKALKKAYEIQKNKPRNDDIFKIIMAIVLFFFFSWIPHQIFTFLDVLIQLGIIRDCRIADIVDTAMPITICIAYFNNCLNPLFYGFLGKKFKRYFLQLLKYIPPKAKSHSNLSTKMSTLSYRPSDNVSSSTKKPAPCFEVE

[6] = molecular target: Beta-galactosidase (Escherichia coli, UniProt Q8VNN2); assay: PubChem AID 485352; assay type: functional
[7] = reduction of Shn3 3'UTR-driven luciferase in osteoblasts – cell-based, Clone20 osteoblasts, firefly luciferase, cherry-picked, dose response (AID 624132); assay type: functional;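 note: firefly luciferase luminescence from reporter carrying the Shn3 3'UTR in osteoblasts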
[8] = blockers of HIV-1 ZM109 envelope-driven cell-cell fusion – HeLa effector, CEM target cells, luciferase, cherry-pick, dose response (AID 652058); assay type: functional, cell-based;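 note: luciferase signal from HIV-1 Env mediated cell-cell fusion of effector and target cells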
[9] = loss of viability in HepG2 cells – cell-based, CellTiter-Glo, cherry-picked, cytotoxicity control for Shn3 inhibitor project, dose response (AID 624134); assay type: functional
[10] = blockers of HIV-1 envelope-mediated cell-cell fusion – cherry-pick, dose response (AID 652057); assay type: functional, cell-based
[11] = non-specific 3'UTR reporter inhibition in Clone20-Shn3RL – cell-based, Renilla luciferase, cherry-picked, counter-screen for Shn3 inhibitor project, dose response (AID 624133); assay type: functional
[12] = off-target signal loss in HeLa-CEM21 co-culture – HeLa F-luc CTL cells, cherry-picked, counter-screen for HIV-1 Env fusion inhibitor project, dose response (AID 652040); assay type: functional, cell-based;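 note: potency for signal decrease marking cytotoxic or nonspecific inhibition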
[13] = HIV-1 AD8 envelope cell-cell fusion blockers – cherry-pick, dose response (AID 652062); assay type: functional, cell-based;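 note: luciferase signal from cell-cell fusion driven by HIV-1 clade B AD8 Env; potency is for inhibitors of fusion seen as a drop in luminescence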
[14] = molecular target: T2, Ubiquitin-conjugating enzyme E2 N (Homo sapiens, UniProt P61088); assay type: functional;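 note: Dose-response confirmation in a TR-FRET assay detecting UBC13-driven polyubiquitin chain formation, inhibition measured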
T2 sequence (P61088 whole entry): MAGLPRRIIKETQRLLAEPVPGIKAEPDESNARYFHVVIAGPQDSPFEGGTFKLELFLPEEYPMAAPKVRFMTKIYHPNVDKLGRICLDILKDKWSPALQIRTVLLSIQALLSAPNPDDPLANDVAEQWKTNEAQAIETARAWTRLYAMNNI

[15] = cells; assay type: functional
[16] = molecular target: T3, Leucine aminopeptidase (Plasmodium falciparum 3D7, UniProt Q8IL11); assay: P. falciparum M17LAP inhibitors, primary screen, biochemical, fluorogenic H-Leu-NHMec substrate, 1536-well (AID 1619); assay type: functional
T3 sequence (Q8IL11 whole entry): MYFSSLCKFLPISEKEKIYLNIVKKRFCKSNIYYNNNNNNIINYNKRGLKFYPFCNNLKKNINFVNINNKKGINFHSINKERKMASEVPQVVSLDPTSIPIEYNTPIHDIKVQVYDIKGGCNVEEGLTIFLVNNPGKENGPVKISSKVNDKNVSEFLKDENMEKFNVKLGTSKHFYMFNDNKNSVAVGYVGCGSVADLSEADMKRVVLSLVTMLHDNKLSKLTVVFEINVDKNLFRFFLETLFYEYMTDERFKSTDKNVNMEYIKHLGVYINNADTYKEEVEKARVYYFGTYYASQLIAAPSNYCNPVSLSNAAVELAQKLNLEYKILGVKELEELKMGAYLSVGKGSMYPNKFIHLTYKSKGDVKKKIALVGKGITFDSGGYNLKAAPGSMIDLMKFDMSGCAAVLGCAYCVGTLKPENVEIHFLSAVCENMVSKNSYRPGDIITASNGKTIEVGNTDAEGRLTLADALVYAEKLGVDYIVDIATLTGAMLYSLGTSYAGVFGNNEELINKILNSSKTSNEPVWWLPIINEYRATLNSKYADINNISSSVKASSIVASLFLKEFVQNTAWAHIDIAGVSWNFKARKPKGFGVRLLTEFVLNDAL

[17] = test system: Streptococcus; assay: GAS UMAA2166 growth inhibition – luminescence, BacTiterGlo, counter-screen for streptokinase expression inhibitor project, dose response (AID 1915); assay type: functional, organism-based;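 note: potency for reduction of bacterial viability or growth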
[18] = test system: Streptococcus sp. 'group A'; assay: Streptococcus pyogenes SK(-)GAS viability under kanamycin – luminescence, BacTiterGlo, confirmation, counter-screen for streptokinase expression inhibitor project, dose response (AID 1900); assay type: functional, organism-based
[19] = molecular target: T4, Streptokinase A (Streptococcus pyogenes serotype M1, UniProt P10520); assay: viability-normalized secreted streptokinase activity reduction – plasminogen activation absorbance, OD405, dose response (AID 1914); assay type: functional, Streptococcus pyogenes M1 GAS;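 note: secreted streptokinase activity via plasminogen activation per viability signal from cell pellet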
T4 sequence (P10520 whole entry): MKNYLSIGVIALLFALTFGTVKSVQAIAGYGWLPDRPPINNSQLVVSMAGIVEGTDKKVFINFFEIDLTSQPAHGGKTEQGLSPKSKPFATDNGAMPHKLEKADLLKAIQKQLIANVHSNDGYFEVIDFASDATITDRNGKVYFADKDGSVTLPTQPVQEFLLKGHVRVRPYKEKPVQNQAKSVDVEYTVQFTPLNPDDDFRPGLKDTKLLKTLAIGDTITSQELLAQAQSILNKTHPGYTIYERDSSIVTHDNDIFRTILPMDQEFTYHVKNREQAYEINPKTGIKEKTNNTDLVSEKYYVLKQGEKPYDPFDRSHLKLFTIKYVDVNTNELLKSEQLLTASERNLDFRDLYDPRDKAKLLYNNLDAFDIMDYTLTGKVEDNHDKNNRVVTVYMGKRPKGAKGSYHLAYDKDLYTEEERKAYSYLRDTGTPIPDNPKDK

[20] = Dd2 malaria parasite growth inhibition potency – SYBR Green, dry powder samples, dose response (AID 1159566); assay type: functional, cell-based;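 note: potency for growth inhibition with lower SYBR green DNA signal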
[21] = growth inhibition of yeast DHODH-expressing 3D7 parasites – SYBR Green, dry powder samples, dose response (AID 1159570); assay type: functional, cell-based;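 note: parasite growth measured after 72 hours of compound exposure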
[22] = toxicity to human HepG2 hepatoma cells – cell-based, plate reader, dry powder samples, cytotoxicity control, dose response (AID 1159569); assay type: functional;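 note: inhibitor potency with signal falling toward the positive control level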
[23] = growth inhibition of PfATP4-mutant resistant parasites – NITD609-resistant line, SYBR Green, dry powder, dose response (AID 1159571); assay type: functional, cell-based;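 note: parasites synchronized at ring stage by sorbitol before testing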
[24] = P. falciparum Dd2 growth inhibitors, dose response, SYBR Green, cherry-picked samples (AID 1159567); assay type: functional, cell-based

For `CC(C)CCN1CCc2nc(-c3ccccc3)c3c(c2C1)COC(C)C3` (stereo unspecified), the AC50 [1] was 3.16 µM (inconclusive).
With `CCOC(=O)c1nn(-c2cccc(Cl)c2)c2nc(Nc3ccccc3)cc(=O)n12` the IC50 [2] was 33 µM (active).
With `Cc1sc2ncnc(Sc3ccccc3C(=O)O)c2c1C` the IC50 [3] was 0.908 µM (active) and the IC50 [4] was > 138 µM (inactive).
With `FC(F)(F)c1cccc(Sc2nc(-c3ccccc3)nnc2C(F)(F)F)c1` the IC50 [5] was 21.4 µM (not active) and the EC50 [6] was > 40 µM (inactive).
For `SC1=NCCc2ccccc2C1c1ccccc1Cl` (stereo unspecified), the IC50 [5] was 13.8 µM (active) and the EC50 [6] was > 40 µM (inactive).
For `CCOc1ccc(C2C(C#N)=C(N)SC(N)=C2C#N)cc1OCC`, the IC50 [3] was 2.32 µM (active) and the IC50 [4] was > 138 µM (inactive).
For `CCC1(C)Cc2ccccc2-c2[nH]c(=S)[nH]c(=O)c21` (stereo unspecified), the IC50 [3] was 2.93 µM (active).
With `CCC1(C)Cc2ccccc2-c2nc(S)nc(O)c21` (stereo unspecified) the IC50 [4] was > 138 µM (inactive).
With `FC(F)(F)c1ccc(CN2C[C@@H]3C(c4ccccc4)C4(c5ccccc5)CC3(C4)[C@H]2c2ccccc2)cc1` (stereo partly specified) the AC50 [1] was 15.8 µM (inconclusive).
For `CC(=O)Nc1ccc(NC(=O)CCC(=O)OCC(=O)c2ccc(C)c([N+](=O)[O-])c2)cc1`, the IC50 [5] was > 40 µM (not active) and the EC50 [6] was > 40 µM (inactive).
With `O=C(c1ccccc1)N1CCN(c2ncnc3sc4c(c23)CCC4)CC1` the AC50 [7] was 4.14 µM (active), the AC50 [8] was 41.4 µM (active) and the AC50 [9] was 48 µM (active). The AC50 [10] was 28.7 µM (active) and the AC50 [11] was 4.25 µM (active).
In the case of `COc1ccc([C@@H]2[C@@H]3C(=O)N(C(C)(C)C)C(=O)[C@@H]3[C@]3(CC(C)C)C(=O)N(c4ccc(C(F)(F)F)cc4)C(=O)N23)cc1`, the AC50 [12] is reported as 3.8 µM (active), the AC50 [8] is reported as 2.51 µM (active) and the AC50 [13] is reported as 4.52 µM (active). The AC50 [10] was 1.6 µM (active).
For `O=C(COc1ccc(Cl)cc1)NNC(=O)c1ccccn1`, the IC50 [14] was > 20 µM (inactive) and the IC50 [15] was 6.74 µM (active).
For `Cc1ccc(C(=O)CNc2ccccc2C)cc1`, the IC50 [5] was 8.2 µM (active) and the EC50 [6] was > 40 µM (inactive).
In the case of `COc1cccc(OC)c1C(=O)NC(C)C12CC3CC(CC(C3)C1)C2` (stereo unspecified), the IC50 [2] is reported as 22.7 µM (active).
With `CC(C)=CCCC1(C)C=Cc2c(O)c3c(c(CC=C(C)C)c2O1)OC12C(=CC4CC1C(C)(C)OC2(C/C=C(/C)C(=O)O)C4=O)C3=O` (stereo unspecified) the AC50 [1] was 39.8 µM (inconclusive).
In the case of `Cc1ccc(C(=O)Nc2sc3c(c2C(=O)O)CCCCC3)o1`, the IC50 [2] is reported as 28.4 µM (active).
In the case of `O=C(Cn1cc(C(=O)c2cccs2)c2ccccc21)NC1CCCCC1`, the IC50 [14] is reported as > 20 µM (inactive).
For `CC(=O)OC1CCC2C3CCc4cc(O)ccc4C3CCC12C` (stereo unspecified), the AC50 [1] was 39.8 µM (inconclusive).
In the case of `CCOC(=O)CC(=O)CSc1nc(O)c2sc(=S)n(-c3ccc(OCC)cc3)c2n1`, the IC50 [2] is reported as 21.6 µM (active) and the IC50 [16] is reported as 26.4 µM (active).
For `Cc1cc(NC(=O)CSc2nc(-c3cccs3)nc3ccccc23)no1`, the IC50 [3] was 2.15 µM (active) and the IC50 [4] was 53.6 µM (inactive).
In the case of `COc1ccc(NC(=O)Nc2ccc3c(c2)C(=O)N([C@H](C)CO)C[C@H](C)[C@H](CN(C)Cc2ccncc2)OCCCC[C@H](C)O3)cc1`, the AC50 [8] is reported as 8.87 µM (active), the AC50 [13] is reported as 20.1 µM (active) and the AC50 [10] is reported as 13 µM (active).
With `Cc1ccc(C)c(NC(=S)N/N=C2/CCCCc3ccccc32)c1` the IC50 [5] was > 40 µM (not active), the EC50 [17] was > 150 µM (not active) and the EC50 [18] was 0.956 µM (active). For the same compound, the EC50 [6] was > 40 µM (inactive) and the EC50 [19] was > 150 µM (not active).
For `CO[C@H]1CN(C)C(=O)c2cc(NC(=O)Nc3cccc(Cl)c3)ccc2OC[C@H](C)NC[C@H]1C`, the AC50 [20] was 3.03 µM (active), the AC50 [21] was 3.37 µM (active) and the AC50 [22] was 25 µM (active). For the same compound, the AC50 [23] was 5.09 µM (active) and the AC50 [24] was 4.56 µM (active).
In the case of `CO[C@@H]1CN(C)C(=O)c2ccc(NC(=O)Nc3ccc(C(F)(F)F)cc3)cc2OC[C@H](C)NC[C@H]1C`, the AC50 [20] is reported as 1.51 µM (active), the AC50 [21] is reported as 2.96 µM (active) and the AC50 [22] is reported as 32.6 µM (active). For the same compound, the AC50 [23] was 2.88 µM (active) and the AC50 [24] was 2.13 µM (active).
For `C[C@@H]1CN([C@H](C)CO)C(=O)c2cccc(NC(=O)c3ccc(-c4nccs4)cc3)c2O[C@H]1CN(C)Cc1ccc2c(c1)OCO2`, the AC50 [20] was 3.02 µM (active), the AC50 [21] was 3.63 µM (active) and the AC50 [22] was > 100 µM (inactive). The AC50 [23] was 3.44 µM (active) and the AC50 [24] was 1.19 µM (active).
With `C/C=C/c1ccc2c(c1)[C@H]1[C@H](CCN1S(=O)(=O)c1ccccc1C)[C@@H](CO)N2` the AC50 [20] was 1.18 µM (active), the AC50 [21] was 1.46 µM (active) and the AC50 [23] was 0.942 µM (active). The AC50 [24] was 1.83 µM (active).
In the case of `CCCCCC[C@H]1C(=O)O[C@H](C)[C@H](NC(=O)c2cccc(NC=O)c2O)C(=O)O[C@@H](C)[C@@H]1OC(=O)CC(C)C` [ANTIMYCIN A], the AC50 [1] is reported as 6.31 µM (inconclusive).
For `NC(=O)c1ccccc1` [BENZAMIDE], the AC50 [1] was 0.005 µM (inconclusive).
